Data from US6774263B1, “Pharmaceutically active compound and methods of use” (Cambridge Neuroscience, Inc., priority 1997, dated 2004).
Counter-ions that a name gives are not always drawn.

Experiments:
rat pups = assay: Rat pup hypoxia-ischemia model; assay type: in vivo
Protocol: A. The hydrochloride salt of (±)-N-(2-chloro-5-methylthiophenyl)-N′-(3-methylsulfinylphenyl)-N′-methylguanidine was tested in the rat pup hypoxia-ischemia model with % reduction in total lesion volume determined at the specified test dose. A rat pup hypoxia-ischemia assay protocol of the following protocol was employed.
8 day-old rat pups weighing 17-23 grams were anaesthetized with isoflurane and the left common carotid artery ligated. Immediately prior to the hypoxia-ischemia (H-I) insult a test group of animals was injected intraperitoneally with 2 mg/kg, 5 mg/kg or 10 mg/kg of the test compound and a control group was treated with a corresponding dose of mannitol. Then, immediately after the H-I insult, the animals received a second equivalent dose, i.e. the test group of animals was injected intraperitoneally with 2 mg/kg (total 4 mg/kg administered in the two doses), 5 mg/kg (total 10 mg/kg administered in the two doses) or 10 mg/kg (total 20 mg/kg administered in the two doses) of the test compound and a control group was treated with a corresponding dose of mannitol. The animals were then allowed to recover for 1-2 hours and then exposed to 7.8% O2 in nitrogen for 78 minutes in an incubator at 36.5° C. The rat pups were returned to mothers immediately after the H-I insult. The animals were sacrificed two days after H-I insult, their brain was removed and cut into four 2 mm thick slices prior to staining with 2% 2,3,5-triphenyltetrazolium chloride (TTC) solution. The sections were then fixed with 4% paraformaldehyde solution in the dark at 4° C. for at least 48 hours. Four sections from each brain were imaged and analyzed using the IPLab system. The lesion area which was not stained red with TTC was measured as infarction.
B. The acetate salt of (+)-N-(2-chloro-5-methylthiophenyl)-N′-(3-methylsulfinylphenyl)-N′-methylguanidine was also tested in the rat pup hypoxia-ischemia model with % reduction in total lesion volume determined by the same protocol as specified in Part A above, except the rat pups were exposed to 7.8% O2 in nitrogen for 85 minutes.

rats [1] = assay: Rat MCAO ischemia model; assay type: in vivo; settings: in thirds at 10 min, 1 h and 2 h
Protocol: A. The hydrochloride salt of (±)-N-(2-chloro-5-methylthiophenyl)-N′-(3-methylsulfinylphenyl)-N′-methylguanidine (compound (I)) was tested in the rat MCAO ischemia model with % reduction in total lesion volume (mm^3) determined by the following protocol.
Rats were anaesthetized with isoflurane and focal ischemia was induced by directly ligating the main trunk of MCA using a bipolar electrocoagulor. Coronal sections (seven sections, 2.0 mm intervals) were collected and incubated in 2,3,5-triphenyltetrazolium chloride (TTC) solution for 15 minutes at 37° C., then fixed in 4% paraformaldehyde solution in the dark at 4° C. for at least 48 hours. Seven sections of each brain were photographed and analyzed. The areas that were not stained red with TTC were measured as infarction.
The test animals were treated with the test compound and control (mannitol) as follows. Ten minutes after the MCAO incident the test animals were administered (i.v. infusion/10 minutes) with one third of the total dose of the test compound (total doses specified below); 1 hour after that first dosing the test animals were given another one third of the total dose of the test compound; and then 2 hours after that first dosing the test animals were given another one third of the total dose of the test compound. Mannitol was administered to the control group at the first dosing only.
Sprague-Dawley rats with body weights of 270-320 grams were used in the study.

rats [2] = assay: Irwin general behavior screen; assay type: in vivo, rat; settings: times in minutes
Source text: See S. Irwin, Animal and Clinical Pharmacologic Techniques in Drug Evaluation, pages 36-54 (Year Book Medical Publishers, Chicago), which details the protocol of the Irwin behavior screen.

rats [3] = assay: Rat rotarod motor coordination test; assay type: in vivo
Protocol: The effects of the hydrochloride salt of (t)-N-(2-chloro-5-methylthiophenyl)-N′-(3-methylsulfinylphenyl)-N′-methylguanidine (compound (I)) on motor coordination were assessed using the rotarod test. Drug solutions were administered i.v. through the tail vein of test rats in a volume of 5.0 ml/kg at a rate of 1 ml/min. The percentage of animals in each treatment group that fell from the rotarod at each of the four time points tested is summarized in the following Table I. Control was 20% C.D. N in each of the Tables below specifies the number of animals in each test group.
The latency for falling from the rotarod was statistically analyzed using analysis of variance (ANOVA), and a Neumann Keuls post-hoc was applied when appropriate. […] In FIG. 1, “**” designates P<0.01 and “***” designates P<0.001.
The acetate salt of (−)-N-(2-chloro-5-methylthiophenyl)-N′-(3-methylsulfinylphenyl)-N′-methylguanidine was also tested in the same rotarod assay protocol as described in Part A above. Drug solutions were administered i.v. through the tail vein in a volume of 5 ml/kg at a rate of 1 ml/min. In Table II, Control (1) is 60 mM Acetate Buffer in 0.3M mannitol at 0.06 and 0.125 mg/kg doses and Control (2) is 60 mM Acetate Buffer in 0.3M mannitol at 0.25 and 0.5 mg/kg doses.
The acetate salt of (+)-N-(2-chloro-5-methylthiophenyl)-N′-(3-methylsulfinylphenyl)-N′-methylguanidine was also tested in the same rotarod assay protocol as described in Part A above. Drug solutions were administered i.v. through the tail vein in a volume of 5 ml/kg at a rate of 1 ml/min. In Table III, Control (1) is 60 mM Acetate Buffer in 0.3M mannitol at 0.06 and 0.125 mg/kg doses and Control (2) is 60 mM Acetate Buffer in 0.3M mannitol at 0.25 and 0.5 mg/kg doses.
The results for compounds of the invention can be compared to those obtained for MK-801, i.e. (+)-5-methyl-10,11-dihydro-5H-dibenzo[a,d]cyclohepten-5,10-imine maleate. In the rotarod test for MK-801, drug solutions were administered i.v. through the tail vein of each test rat in a volume of 5 ml/kg at a rate of 1 ml/min. The control was 0.9% saline solution.

[4] = cited from earlier work
mouse = settings: in vivo; cited from earlier work
[5] = total dose 2.25 mg/kg i.v. infusion
[6] = total dose 4.5 mg/kg i.v. infusion, 4.5 mg/kg
[7] = total dose 9 mg/kg i.v. infusion, 9 mg/kg

With `CSc1ccc(Cl)c(NC(=N)N(C)c2cccc([S+](C)[O-])c2)c1` (racemic) [compound (I), N-(2-chloro-5-methylthiophenyl)-N′-(3-methylsulfinylphenyl)-N′-methylguanidine] the “% reduction in total lesion volume” value (rat pups; i.p. total dose of 10 mg/kg, 7.8% O2 for 78 minutes) was 60%, the “% reduction in total lesion volume” value (rat pups; i.p. total dose of 20 mg/kg, 7.8% O2 for 78 minutes) was 100% and the “% reduction in total lesion volume” value (rats [1]; [5]) was 24%. For the same compound, the “% reduction in total lesion volume” value (rats [1]; total dose 4.5 mg/kg i.v. infusion) was 32%, the “% reduction in total lesion volume” value (rats [1]; total dose 9 mg/kg i.v. infusion) was 46% and the “behavioral effects observed in Irwin screen” value (rats [2]; 4 mg/kg i.v.) was “excitation (120-180′) sterotypies (sniffing 60-180′) fore-paw treading (120′) loss of traction (2 of 3, 120′)”. The “behavioral effects observed in Irwin screen” value (rats [2]; 16 mg/kg i.v.) was “excitation (30-180′) sterotypies (head-weaving to 180′) fore-paw treading (to 180′) loss of traction (to 180′) hypothermia” and the “lethality of pre-testing doses” value (rats [3]; rat, in vivo) was “lethal”.
In the case of `CSc1ccc(Cl)c(NC(=N)N(C)c2cccc([S+](C)[O-])c2)c1` (single isomer, unassigned; (+)) [compound (IB), (+)-N-(2-chloro-5-methylthiophenyl)-N′-(3-methylsulfinylphenyl)-N′-methylguanidine], the “% reduction in total lesion volume” value (rat pups; i.p. total dose of 10 mg/kg, 7.8% O2 for 85 minutes) is reported as 78%, the “% reduction in total lesion volume” value (rat pups; i.p. total dose of 20 mg/kg, 7.8% O2 for 85 minutes) is reported as 93% and the “% reduction in total lesion volume” value (rats [1]; [5]) is reported as 23%. The “% reduction in total lesion volume” value (rats [1]; [6]) was 32%, the “% reduction in total lesion volume” value (rats [1]; [7]) was 34% and the “latency for falling from the rotarod (falling times)” value (rats [3]; rat, in vivo) was “no statistically significant differences”. The “latency for falling from the rotarod vs control groups” value (rats [3]; rat, in vivo) was “significantly shorter latencies”.
For `CSc1ccc(Cl)c(NC(=N)N(C)c2cccc([S+](C)[O-])c2)c1` (single isomer, unassigned; (-)) [compound (IA), (−)-N-(2-chloro-5-methylthiophenyl)-N′-(3-methylsulfinylphenyl)-N′-methylguanidine], the “% reduction in total lesion volume” value (rats [1]; [6]) was 1%, the “% reduction in total lesion volume” value (rats [1]; [7]) was 22% and the “latency for falling from the rotarod (falling times)” value (rats [3]; rat, in vivo) was “no statistically significant differences”. The “latency for falling from the rotarod vs control groups” value (rats [3]; rat, in vivo) was “significantly shorter latencies”.
For `C[C@]12N[C@H](Cc3ccccc31)c1ccccc12` [MK-801, (+)-5-methyl-10,11-dihydro-5H-dibenzo[a,d]cyclohepten-5,10-imine maleate], the “results in in vivo models of stroke” value [4] is listed as “good results”, the “activity in mouse audiogenic tests” value (mouse) is listed as “good activity” and the “percentage of animals that fell from the rotarod” value (from here on “percentage of animals that fell”) (rats [3]; 0.01 mg/kg i.v., 15 min.) is listed as 38%. For the same compound, the “percentage of animals that fell” value (rats [3]; 0.01 mg/kg i.v., 60 min.) was 13%, the “percentage of animals that fell” value (rats [3]; 0.01 mg/kg i.v., 120 min.) was 25% and the “percentage of animals that fell” value (rats [3]; 0.05 mg/kg i.v., 15 min.) was 86%. For the same compound, the “percentage of animals that fell” value (rats [3]; 0.05 mg/kg i.v., 60 min.) was 57% and the “percentage of animals that fell” value (rats [3]; 0.05 mg/kg i.v., 120 min.) was 29%.
